Laboratory results reported in the CheMixHub drug solubility set.

Assay: xn = mol fraction of the nth substance listed, in the solute-free solvent

COc1cc2c(cc1OC)-c1cc3ccc(OC)c(OC)c3c[n+]1CC2.[Cl-] + O + CC(O)CO
solubility (g/100 g solution)
Settings	283.15 K	288.15 K	293.15 K	298.15 K	303.15 K	308.15 K	313.15 K	318.15 K	323.15 K	328.15 K
x2 = 0.3194	0.0156	0.0224	0.0316	0.0473	0.0678	0.0953	0.132	0.184	0.251	0.339
x2 = 0.5135	0.0475	0.0664	0.0917	0.133	0.186	0.256	0.347	0.47	0.626	0.826
x2 = 0.6441	0.104	0.142	0.193	0.274	0.376	0.505	0.672	0.891	1.17	1.51
x2 = 0.7379	0.183	0.245	0.329	0.457	0.614	0.811	1.06	1.38	1.78	2.26
x2 = 0.8085	0.279	0.368	0.512	0.702	0.905	1.16	1.5	1.92	2.41	3
x2 = 0.8636	0.395	0.513	0.673	0.9	1.21	1.57	1.97	2.46	3.04	3.73
x2 = 0.9079	0.537	0.688	0.893	1.17	1.55	1.96	2.44	3	3.69	4.46
x2 = 0.9441	0.72	0.971	1.23	1.57	1.95	2.41	2.97	3.63	4.39	5.26
x2 = 0.9744	0.947	1.18	1.5	1.9	2.41	2.97	3.61	4.32	5.17	6.09

CC(N)C(=O)O (configuration not stated) + O + CCCO
solubility (g/100 g solution)
Settings	x2 = 0.1	x2 = 0.2	x2 = 0.3	x2 = 0.4	x2 = 0.5	x2 = 0.6	x2 = 0.7	x2 = 0.8	x2 = 0.9
283.15 K	0.0276	0.0472	0.0784	0.143	0.358	0.635	1.29	2.39	4.58
293.15 K	0.0384	0.0536	0.0822	0.164	0.384	0.742	1.56	3.01	5.63
303.15 K	0.0461	0.0689	0.0947	0.202	0.439	0.892	1.89	3.69	6.82
313.15 K	0.0649	0.0791	0.109	0.224	0.504	1.12	2.27	4.41	8.24
323.15 K	0.0824	0.114	0.147	0.268	0.594	1.29	2.65	5.2	9.44

CC(N)C(=O)O (configuration not stated) + O + CCO
solubility (g/100 g solution)
Settings	x2 = 0.1	x2 = 0.2	x2 = 0.3	x2 = 0.4	x2 = 0.5	x2 = 0.6	x2 = 0.7	x2 = 0.8	x2 = 0.9
283.15 K	0.0667	0.0909	0.102	0.126	0.31	0.534	1.1	1.98	4.36
293.15 K	0.0741	0.0951	0.11	0.185	0.389	0.66	1.35	2.59	5.5
303.15 K	0.0895	0.102	0.127	0.245	0.454	0.83	1.68	3.23	6.66
313.15 K	0.0998	0.114	0.136	0.268	0.573	1.05	2.12	3.96	7.99
323.15 K	0.104	0.124	0.196	0.347	0.688	1.37	2.62	4.97	9.53

CC(N)C(=O)O (configuration not stated) + O + CO
solubility (g/100 g solution)
Settings	x2 = 0.1	x2 = 0.2	x2 = 0.3	x2 = 0.4	x2 = 0.5	x2 = 0.6	x2 = 0.7	x2 = 0.8	x2 = 0.9
283.15 K	0.123	0.167	0.315	0.44	0.705	1.21	1.99	3.46	6.52
293.15 K	0.142	0.222	0.377	0.571	0.899	1.53	2.53	4.26	7.7
303.15 K	0.159	0.281	0.434	0.667	1.11	1.88	3.07	5.17	8.92
313.15 K	0.178	0.331	0.492	0.816	1.39	2.35	3.85	6.26	10.4
323.15 K	0.193	0.424	0.627	1.03	1.77	2.95	4.69	7.21	11.9

Cc1ncc(C[n+]2csc(CCO)c2C)c(N)n1.O=[N+]([O-])[O-] + O + CO
solubility (g/100 g solution)
Settings	x2 = 0.1	x2 = 0.2	x2 = 0.3	x2 = 0.4	x2 = 0.5	x2 = 0.6	x2 = 0.7	x2 = 0.8	x2 = 0.9
278.15 K	0.197	0.323	0.483	0.678	0.884	1.03	1.17	1.18	1.2
283.15 K	0.221	0.371	0.566	0.801	1.05	1.24	1.41	1.43	1.44
288.15 K	0.273	0.429	0.66	0.918	1.24	1.47	1.67	1.68	1.7
293.15 K	0.35	0.52	0.79	1.08	1.47	1.77	2.02	2.04	2.08
298.15 K	0.422	0.636	0.951	1.34	1.77	2.19	2.5	2.54	2.54
303.15 K	0.518	0.786	1.17	1.64	2.18	2.68	3.06	3.14	3.1
308.15 K	0.657	0.983	1.46	1.96	2.64	3.23	3.75	3.85	3.77
313.15 K	0.812	1.24	1.81	2.52	3.25	3.94	4.6	4.72	4.55

Cc1[nH]c(=O)c(C#N)cc1-c1ccncc1 + OCCO + O
solubility (g/100 g solution)
Settings	278.15 K	283.15 K	288.15 K	293.15 K	298.15 K	303.15 K	308.15 K	313.15 K	318.15 K	323.15 K
x2 = 0.03125	0.000882	0.00106	0.00125	0.00147	0.00171	0.00196	0.00222	0.00252	0.00285	0.00321
x2 = 0.06767	0.00131	0.00157	0.00185	0.00216	0.00252	0.00288	0.00326	0.0037	0.00417	0.0047
x2 = 0.1107	0.00189	0.00227	0.00266	0.00311	0.00362	0.00413	0.00467	0.00529	0.00595	0.0067
x2 = 0.1622	0.00264	0.00316	0.0037	0.00432	0.00502	0.00573	0.00647	0.00732	0.00821	0.00925
x2 = 0.225	0.00351	0.0042	0.00493	0.00575	0.00666	0.0076	0.00858	0.00971	0.0109	0.0123
x2 = 0.3034	0.00434	0.00527	0.00628	0.00732	0.00847	0.00967	0.0109	0.0123	0.0138	0.0155
x2 = 0.4038	0.00509	0.00622	0.00737	0.00855	0.00992	0.0116	0.0131	0.0148	0.0165	0.0186
x2 = 0.5373	0.00576	0.00696	0.00818	0.00966	0.0113	0.0129	0.0147	0.0167	0.0186	0.0211
x2 = 0.7232	0.00605	0.0074	0.00868	0.0102	0.0118	0.0135	0.0153	0.0174	0.0195	0.0223

Nc1nccnc1Cl + OCCO + O
solubility (g/100 g solution)
Settings	278.15 K	283.15 K	288.15 K	293.15 K	298.15 K	303.15 K	308.15 K	313.15 K	318.15 K	323.15 K
x2 = 0.03125	0.0244	0.0327	0.0431	0.0542	0.0663	0.0791	0.0925	0.108	0.123	0.139
x2 = 0.06767	0.0337	0.045	0.0589	0.0739	0.0903	0.108	0.126	0.147	0.167	0.189
x2 = 0.1107	0.0487	0.0645	0.0838	0.105	0.128	0.153	0.178	0.208	0.236	0.267
x2 = 0.1622	0.0695	0.0914	0.118	0.147	0.179	0.213	0.25	0.29	0.33	0.372
x2 = 0.225	0.09	0.119	0.153	0.192	0.235	0.28	0.328	0.382	0.435	0.491
x2 = 0.3034	0.113	0.148	0.19	0.239	0.291	0.347	0.408	0.474	0.541	0.61
x2 = 0.4038	0.13	0.17	0.218	0.273	0.334	0.399	0.469	0.546	0.625	0.705
x2 = 0.5373	0.139	0.182	0.232	0.292	0.357	0.427	0.505	0.589	0.676	0.764
x2 = 0.7232	0.142	0.182	0.235	0.297	0.364	0.438	0.519	0.607	0.699	0.792
